Measurements as given in a melting point compilation (Tetko et al.; mined from patent text by program, amines drawn as free bases though some values may be those of a salt).

melting point [°C]	Compound
161	CC(=O)OC1CSC(Oc2cccnc2Br)C(OC(C)=O)C1OC(C)=O (stereo not drawn)
121 to 124	CC(=O)NCC(=O)c1cc(OC(C)=O)c(OC(C)=O)c([N+](=O)[O-])c1
137 to 138	Fc1ccc(-c2ncn(C3CCNCC3)c2-c2ccnc(Oc3cccc(C(F)(F)F)c3)n2)cc1
138 to 141	COC(=O)C(=O)c1oc2cccc(OCc3ccc(F)cc3)c2c1O
173	COc1ccc(C2(c3ccc(OC)cc3)CC(C)N=C2NC(=O)c2cc(C)[nH]n2)cc1 (stereo not drawn)
124	CCOc1ccc(C2=NC[C@@H](O)[C@H](c3ccccc3)O2)cc1 (racemic)
108	CCC1=NNC(C)=C(C(=O)OC(C)C)C1c1cccc([N+](=O)[O-])c1 (stereo not drawn)
248 to 249	CC(C)NC(=O)Cn1c(-c2ccc(Cl)cc2)nc2cccnc21
110 to 112	CCc1coc(=O)n1C(=O)c1ccccc1Cl
125 to 127	CC(C(N)=O)c1ccc(NS(=O)(=O)C(C)C)cc1 (stereo not drawn)
80 to 82	N#CCOC(=O)c1ccc([N+](=O)[O-])cc1
193 to 200	CC(=O)Nc1c(C(=O)c2ccc(O)c(O)c2)[nH]c2cc(Cl)ccc12
100 to 102	CCOC(=O)CC(c1ccccc1)c1ccc(N2CCN(CCC3CCN(C(=O)OC(C)(C)C)CC3)C2=O)cc1 (stereo not drawn)
89 to 90	Cc1oc(-c2ccccc2)nc1CCc1nc(CCl)cs1
40 to 41	CCCCCCCCCCCCCCCC(=O)CC(=O)OC
210 to 212	Cc1cc(C)c(Nc2nc(C)ncc2S(=O)(=O)c2ccc(-c3cncnc3)cc2)c(C)c1
91 to 93	O=C(COc1ccccc1)NCCCn1ccnc1
362	CC(=O)N1CCc2sc(/C=C3/C(=O)N4C(C(=O)O)=CS[C@H]34)cc2C1
118	O=C(c1ccc(S(=O)(=O)Cl)cc1)c1cccs1
139 to 141	CC(C)OC(=O)Nc1c(C(O)(C(F)(F)F)C(F)(F)F)ccc2ccccc12
108 to 110	CC(C)(C(=O)O)c1cn2nc(CCCCN3CCN(C(c4ccccc4)c4ccccc4)CC3)ccc2n1
209	NS(=O)(=O)c1nc2ccc(O)cc2s1
124 to 126	COc1cc(OC)cc(N2CCN(C(=O)Nc3cc(C(C)O)c(C)nc3OC)CC2)c1 (stereo not drawn)
138 to 140	N#Cc1cccc2c1C(=O)OC2O (stereo not drawn)
190 to 191	CCCCOc1ccc(C(=O)N[C@@H]2CCc3cccc(N4CCN(C)CC4)c3C2)cc1

melting point [°C]	Compound
280 to 282	CC(C)c1cccc(C(C)C)c1NC(=O)CN1C(=O)N(c2ccc(C#N)cc2)C2(CCCCC2)C1=O
238 to 241	O=c1ccc(-c2ccc([N+](=O)[O-])c(C(F)(F)F)c2)n[nH]1
105 to 107	COC(=O)C(C(C)C)N1CC(NC(=O)Cc2ccccc2)C1=O (stereo not drawn)
108 to 109	O=C1OC(O)c2ccc(Cl)cc21 (stereo not drawn)
> 280	CCn1c(=O)c2[nH]c(/C=C/c3cc(C)c(OC)cc3C)nc2n(CC)c1=O
152 to 153	CS(=O)(=O)c1ccc(-c2coc(=O)n2-c2ccc(F)cc2)cc1
139 to 140	O=C(O)c1ccccc1CSc1ccc(Br)cc1
233	Cc1nc2c(O)c(C(=O)[C@@H]3OC(C)(C)O[C@H]3c3ccccc3)ccc2n1C
125 to 126	CC1COC(Nc2ccccc2)(c2ccnc(C(=O)c3ccc(Cl)cc3)c2)O1 (stereo not drawn)
212	Cc1ccc(NC(=O)c2nc(C)cc(C#N)c2C)nc1
135 to 140	CC(C)S(=O)(=O)NC(=O)Nc1ccc(Cl)c(C(F)(F)F)c1
195 to 197	O=C(NCc1ccc(Cl)cc1)c1cn2c3c(cc(CN4CCOCC4)cc3c1=O)OCCC2
207 to 208	O=c1[nH]c(N2CCN(CCO)CC2)cc2c(F)cccc12
124 to 126	CS(=O)(=O)c1ccc(C(CC2CCCC2)C(=O)Nc2nc(CO)cs2)cc1 (stereo not drawn)
125 to 127	CCOC(=O)c1c(Br)c2cc(OCc3ccccc3)ccc2n1C
76 to 77	Cc1cc(C)cc(-c2nc(CCl)co2)c1
189 to 190	Cc1ccc(-c2ccc(OC3SCC(O)C(O)C3O)c(F)n2)cn1 (stereo not drawn)
130 to 132	c1cc2c(cc1CSc1nnc(-c3ccc4c(c3)CCO4)o1)CCO2
111 to 114	COC(=O)CS(=O)(=O)Nc1c(F)cccc1Oc1nc(OC)cc(OC)n1
230	O=c1cc(C=Cc2ccccc2)oc2ccc(O)cc12
217 to 218	COC(=O)CC1NC(=O)C(Cc2ccccc2)NC1=O (stereo not drawn)
198	CN(O)C(=O)Nc1ccc(S(C)=O)cc1 (stereo not drawn)
59 to 59.5	CC(=O)N[C@@H](CSC(=O)C(C)C)C(=O)OC(C)C
128 to 130	C=C(C)C(=O)N[C@@H](CCC(=O)O)C(=O)O
95 to 98	CCCCCS(=O)(=O)NC(=O)/C=C/c1cc(OCCCC)nn1Cc1ccc(Cl)cc1Cl

melting point [°C]	Compound
178 to 179	CSC1=NC(C)(C)CN1C(=O)Nc1c(C)cccc1C
86 to 88	COC(=O)c1ncc(C)cc1S(N)(=O)=O
145 to 148	CONC(=O)Nc1cc(C(C)(C)C)on1
127 to 129	CC(C)CC(=O)CNC(=O)c1ccc(Cl)cc1
334 to 338	CC(=O)Nn1c(=S)[nH]c2cc(C(=O)O)ccc21
83 to 85	O=C(CCCCCCOc1ccccc1)c1nnc(CO)o1
108 to 109	O=[N+]([O-])c1cnc2ccc(Sc3ccccc3)cn12
130	NC(=O)/C=C/c1ccc(F)cc1
96 to 98	Cc1cc(CCCCCCCCCCc2cc(C)c(O)c(C(C)(C)C)c2)cc(C(C)(C)C)c1O
154 to 156	COc1c(C)cc(-c2c3ccccc3c(C)c3sc4ccccc4c23)cc1C
103 to 105	Cc1sc(N)c(C(=O)c2cccc(C(F)(F)F)c2)c1C
253 to 255	COCc1c(C(=O)O)ncc2[nH]c3cccc(CN4CCOCC4)c3c12
165 to 167	O=C(NC1CCCCC1)NS(=O)(=O)c1cnccc1NC1CCCCC1
50 to 52	OC(CCCCCCCCCCOCc1ccccc1)c1ccc(OCc2ccccc2)c(OCc2ccccc2)c1 (stereo not drawn)
210 to 212	CCCCc1nc2c(N)nc3ccccc3c2n1CCCNS(=O)(=O)c1ccccc1
85	CCN(CC)c1nc(Cl)c([N+](=O)[O-])s1
96 to 97	COC(=O)c1cc2sccc2s1
116	CC(=O)c1cc2c(cc1C=O)C(C)(C)CCC2(C)C
> 250	O=C(O)c1ccc2c(Br)n[nH]c2c1
148	O=C1CCS(=O)(=O)C1=NO
284 to 286	O=C(O)c1cn(-c2cccc(F)c2)c2cc(Cl)ccc2c1=O
142 to 144	CNCCn1nc(N)c2cc3cc(OC)ccc3nc21
192 to 193	CC(=O)N(C)Cc1ccc(NC(=O)/C=C/c2cnn(C)c2-c2ccc(F)cc2)cc1
97 to 98	CCOC(=O)c1ccc2c(c1)N(CCN(C)C)C(=O)c1cc(C(C)C)cc(C(C)C)c1O2
148 to 155	CCc1cc(OC)cc2nc(-c3cccnc3N3CC[C@H](N(C)C)C3)oc(=O)c12

melting point [°C]	Compound
179 to 180	Cc1oc2nc(C(=O)O)nc(OCCN(C)C)c2c1C
153 to 155	CC(=Cc1ccc(C(C)C)cc1)COc1cc(C)c(NC=O)c(C)c1C
155 to 158	O=C(c1ccc(-c2cccc3ccccc23)nc1)N1Cc2cccn2Cc2ccccc21
176 to 177	NC(=O)CNC(=O)c1cncc(-c2cccc3cc(Cc4cc(F)cc(Cl)c4)sc23)c1
> 250	CNCC(C)C1(c2ccccc2)C=CCC=C1 (stereo not drawn)
204 to 206	O=C(Oc1ccc2c(=O)cc(N3CCOCC3)oc2c1)c1ccccc1
194 to 195	CC(C)(C(N)=O)c1cn2nc(Cl)ccc2n1
120 to 122	CC(C)C[C@H](NC(=O)OCc1ccccc1)C(=O)N[C@@H](Cc1ccccc1)C(=O)O
170 to 172	O=C(O)c1ccc(OCCCON=Cc2ccc(-c3ccccc3)cc2)cc1NC(=O)c1ccccc1C(F)(F)F
196 to 200	CCCC1=C(C#N)C(c2cccc(N3CCOCC3)c2)c2c[nH]nc2N1 (stereo not drawn)
48 to 54	COC(=O)C(CNC(=O)c1ccccc1)NC(=O)C(C)(C)NC(=O)C(SC(C)=O)C(C)C (stereo not drawn)
176 to 178	O=C(Nc1ccc(Cl)c(C(F)(F)F)c1)N[C@H]1CC[C@H](Oc2ccc(C(F)(F)F)cn2)CC1
180 to 181	COc1cc(COc2nn(-c3ccccc3)cc2/C=C/C(=O)N2CCOCC2)ccc1OCc1nc(-c2ccco2)oc1C
127 to 129	COc1cc(Br)ccc1-c1ccc(Br)cc1[N+](=O)[O-]
269 to 271	O=C(NCc1ccc(Cl)cc1)c1n[nH]c2ccccc2c1=O
136 to 138	CC(C)c1ccc(C(=O)Cc2ccsc2)c(C(C)C)c1OS(N)(=O)=O
240	CS(=O)c1csc(NC(=O)c2ccccc2O)n1 (stereo not drawn)
215 to 217	CCCn1c(=O)c2[nH]c(C(C)Cc3ccncc3)nc2n(CCC)c1=O (stereo not drawn)
112 to 114	CNC(=O)c1ccc(-c2ccc3cnc(Nc4ccc(N5CCC(N6CCN(C)CC6)CC5)cc4OC)nn23)cc1
44 to 54	CN1CCN(C2=Nc3ccccc3Sc3ccccc32)C[C@@H]1CCc1ccccc1
117 to 119	CN(C)C(=O)C(C)(C)n1cc(Cl)c(-c2ccccc2)n1
332 to 334	CCC(C)(C)C(=O)NNc1cc(NC(=O)CC(C)(C)C)cc(NC(=O)CC(C)(C)C)c1
209 to 212	CC(Cc1ccc(OCc2cccc(C(=O)O)c2)cc1)NCCC(c1ccccc1)c1ccccc1 (stereo not drawn)
160 to 162	CNc1nc(C)cc(-n2ccc3ccccc32)n1
243 to 245	CCOC(=O)N1Cc2sc3ncn(CCO)c(=O)c3c2C1

Compound	melting point [°C]
CN1Cc2c(I)ncn2-c2ccccc2C1=O	174 to 176
CO[C@@H]1CCN2C(=O)N(c3ccc(C#N)c4ccccc34)C(=O)[C@H]12 (relative stereo)	185 to 186
O=[PH](c1ccc2c(c1)OCO2)c1ccc2c(c1)OCO2	128
